Values joined by “and” are separate entries in the source; they are usually repeats but may differ in a detail not shown here. Identical values can stand only once. Toxic doses and inconclusive results are not listed. The calls were made as follows: active = survival T/C of 150% or more; inactive = T/C below 125% in these data.
Tested on: P388 leukemia ip, CD2F1 mice, survival T/C
Test: NCI In Vivo Anticancer Drug Screen. Data for tumor model P388 Leukemia (intraperitoneal) in CD2F1 (CDF1) mice
Details: endpoint: median survival time, higher = longer survival
Procedure, shortened: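 Mice carrying the transplanted tumor received test compound or vehicle. Survival was recorded in each group, and the value is the treated-group measurement divided by that of the vehicle-treated control group.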

[1] = dose: 50.0 mg/kg/injection, schedule: Q01DX009 (ip), vehicle: saline
[2] = dose: 100.0 mg/kg/injection, schedule: Q01DX009 (ip), vehicle: saline
[3] = dose: 100.0 mg/kg/injection, schedule: Q04DX003 (ip), vehicle: saline with Tween-80
[4] = dose: 200.0 mg/kg/injection, schedule: Q04DX003 (ip), vehicle: saline with Tween-80
[5] = dose: 400.0 mg/kg/injection, schedule: Q04DX003 (ip), vehicle: saline with Tween-80
[6] = dose: 200.0 mg/kg/injection, schedule: Q01DX009 (ip), vehicle: saline
[7] = dose: 50.0 mg/kg/injection, schedule: Q01DX009 (ip), vehicle: saline with Tween-80
[8] = dose: 100.0 mg/kg/injection, schedule: Q01DX009 (ip), vehicle: saline with Tween-80
[9] = dose: 60.0 mg/kg/injection, schedule: Q01DX005 (ip), vehicle: saline
[10] = dose: 120.0 mg/kg/injection, schedule: Q01DX005 (ip), vehicle: saline
[11] = dose: 25.0 mg/kg/injection, schedule: Q01DX009 (ip), vehicle: saline with Tween-80
[12] = dose: 200.0 mg/kg/injection, schedule: Q01DX009 (ip), vehicle: saline with Tween-80
[13] = dose: 50.0 mg/kg/injection, schedule: Q01DX005 (ip), vehicle: Klucel (hydroxypropylcellulose) (HPC)
[14] = dose: 100.0 mg/kg/injection, schedule: Q01DX005 (ip), vehicle: Klucel (hydroxypropylcellulose) (HPC)
[15] = dose: 200.0 mg/kg/injection, schedule: Q01DX005 (ip), vehicle: Klucel (hydroxypropylcellulose) (HPC)
[16] = dose: 25.0 mg/kg/injection, schedule: Q01DX005 (ip), vehicle: Klucel (hydroxypropylcellulose) (HPC)
[17] = dose: 60.0 mg/kg/injection, schedule: Q01DX005 (ip), vehicle: saline with Tween-80
[18] = dose: 120.0 mg/kg/injection, schedule: Q01DX005 (ip), vehicle: saline with Tween-80
[19] = dose: 240.0 mg/kg/injection, schedule: Q01DX005 (ip), vehicle: saline with Tween-80
[20] = dose: 12.5 mg/kg/injection, schedule: Q01DX005 (ip), vehicle: Klucel (hydroxypropylcellulose) (HPC)

Measured: T/C

C[Si](C)(C)N=S1(=N[Si](C)(C)C)CCCC1
inactive: dose: 50.0 mg/kg/injection, schedule: Q01DX005 (ip), vehicle: olive oil, sesame oil, peanut oil 109 % of control | dose: 100.0 mg/kg/injection, schedule: Q01DX005 (ip), vehicle: olive oil, sesame oil, peanut oil 109 % of control | dose: 200.0 mg/kg/injection, schedule: Q01DX005 (ip), vehicle: olive oil, sesame oil, peanut oil 114 % of control

O=[N+]([O-])c1ccccc1/C(=N\O)c1cccs1
inactive: dose: 100.0 mg/kg/injection, schedule: Q04DX002 (ip), vehicle: Klucel (hydroxypropylcellulose) (HPC) 107 % of control | dose: 200.0 mg/kg/injection, schedule: Q04DX002 (ip), vehicle: Klucel (hydroxypropylcellulose) (HPC) 100 % of control

O=[N+]([O-])c1cccn2cnnc12
inactive: [1] 98 % of control | [2] 87 % of control

COc1cccc2c1C(=O)c1c(O)c3c(c(O)c1C2=O)C[C@@](O)(C(C)=O)CC3OC1CC(N/C(C)=C/C(=O)c2ccccc2)C(O)C(C)O1 (some centres not stated)
inactive: dose: 6.25 mg/kg/injection, schedule: Q04DX003 (ip), vehicle: saline with Tween-80 105 % of control | dose: 12.5 mg/kg/injection, schedule: Q04DX003 (ip), vehicle: saline with Tween-80 104 % of control | dose: 25.0 mg/kg/injection, schedule: Q04DX003 (ip), vehicle: saline with Tween-80 105 % of control and 107 % of control | dose: 50.0 mg/kg/injection, schedule: Q04DX003 (ip), vehicle: saline with Tween-80 101 % of control and 111 % of control

COn1nnc2cc(Cl)ccc21
inactive: dose: 100.0 mg/kg/injection, schedule: Q04DX002 (ip), vehicle: saline with Tween-80 107 % of control | dose: 200.0 mg/kg/injection, schedule: Q04DX002 (ip), vehicle: saline with Tween-80 98 % of control | dose: 400.0 mg/kg/injection, schedule: Q04DX002 (ip), vehicle: saline with Tween-80 98 % of control

COC(=O)/C=C(/C(=O)OC)N(C)Cc1ccccc1
inactive: dose: 25.0 mg/kg/injection, schedule: Q01DX009 (ip), vehicle: Klucel (hydroxypropylcellulose) (HPC) 97 % of control | dose: 50.0 mg/kg/injection, schedule: Q01DX009 (ip), vehicle: Klucel (hydroxypropylcellulose) (HPC) 104 % of control | dose: 100.0 mg/kg/injection, schedule: Q01DX009 (ip), vehicle: Klucel (hydroxypropylcellulose) (HPC) 98 % of control | [3] 99 % of control | dose: 200.0 mg/kg/injection, schedule: Q01DX009 (ip), vehicle: Klucel (hydroxypropylcellulose) (HPC) 101 % of control | [4] 99 % of control | [5] 101 % of control

CN(C)/C=C/c1ccc([N+](=O)[O-])o1
inactive: dose: 50.0 mg/kg/injection, schedule: Q01DX009 (ip), vehicle: suspension in saline 100 % of control | dose: 100.0 mg/kg/injection, schedule: Q01DX009 (ip), vehicle: suspension in saline 104 % of control | dose: 200.0 mg/kg/injection, schedule: Q01DX009 (ip), vehicle: suspension in saline 118 % of control

NC(=Nc1ccccc1)c1ccccn1
inactive: [1] 95 % of control | [2] 94 % of control | [6] 95 % of control

CN(C)C(=S)SCc1ccc(C(=O)O)nc1
inactive: [7] 99 % of control | [8] 98 % of control

CC(C(=O)c1ccc(O)cc1)(c1nc2nnc(N)n2[nH]c1=O)c1nc2nnc(N)n2[nH]c1=O
inactive: [9] 98 % of control | [10] 98 % of control | dose: 240.0 mg/kg/injection, schedule: Q01DX005 (ip), vehicle: saline 97 % of control

CC(C)NCC(O)COc1cccc2[nH]c3ccccc3c12 (configuration not stated)
inactive: [11] 99 % of control | [7] 96 % of control

COC1C=COC2(C)Oc3c(C)c(O)c4c(O)c(c(C5SCCS5)c(O)c4c3C2=O)NC(=O)C(C)=C/C=C\C(C)C2OC(C)(C)OC(C2C)C(C)C(OC(C)=O)C1C (configuration not stated)
inactive: [7] 109 % of control | [8] 102 % of control | [12] 96 % of control

CC(C)(C)CC(C)(C)C/C=C/CN1C(=O)c2ccccc2S1(=O)=O
inactive: [13] 101 % of control | [14] 100 % of control | [15] 108 % of control

CC/C(=N\NS(=O)(=O)c1ccc(C)cc1)c1ccc(OC)c(C)c1
inactive: [7] 105 % of control | [1] 104 % of control | [8] 97 % of control | [12] 99 % of control | [6] 96 % of control

CC1CCN(CC#CCN2C(=O)CCC2=O)CC1
inactive: [16] 104 % of control | [13] 103 % of control | [14] 107 % of control | [15] 107 % of control

CCOC(=O)Nc1ccc(OCC)cc1
inactive: dose: 100.0 mg/kg/injection, schedule: Q04DX003 (ip), vehicle: Klucel (hydroxypropylcellulose) (HPC) 107 % of control | dose: 200.0 mg/kg/injection, schedule: Q04DX003 (ip), vehicle: Klucel (hydroxypropylcellulose) (HPC) 100 % of control | dose: 400.0 mg/kg/injection, schedule: Q04DX003 (ip), vehicle: Klucel (hydroxypropylcellulose) (HPC) 92 % of control

c1nc(SC2CCCC2)c2[nH]cnc2n1
inactive: [3] 118 % of control | [4] 104 % of control | [5] 118 % of control

COc1cc(C(=O)CCCC(=O)O)cc(OC)c1OC
inactive: [7] 96 % of control | [8] 92 % of control | [12] 88 % of control

N[C@H]1CN([C@@H](C(=O)O)c2ccc(O)cc2)C1=O
inactive: [13] 105 % of control | [14] 105 % of control | [15] 103 % of control | dose: 400.0 mg/kg/injection, schedule: Q01DX005 (ip), vehicle: Klucel (hydroxypropylcellulose) (HPC) 99 % of control

CC#CCOCC(O)CCl (configuration not stated)
inactive: dose: 66.0 mg/kg/injection, schedule: Q04DX003 (ip), vehicle: saline 110 % of control | dose: 100.0 mg/kg/injection, schedule: Q04DX003 (ip), vehicle: saline 100 % of control | dose: 150.0 mg/kg/injection, schedule: Q04DX003 (ip), vehicle: saline 120 % of control

CC(C)B1N(C(C)(C)C)B(C(C)C)N(C(C)(C)C)B(C(C)C)N1C(C)(C)C
inactive: [17] 93 % of control | [18] 101 % of control | [19] 104 % of control

CC1COC(C)(C)P(c2ccccc2)C1 (configuration not stated)
inactive: [17] 102 % of control | [18] 105 % of control | [19] 106 % of control

CN(C)CCCN1CCC2(CCSCC2)C1
inactive: dose: 50.0 mg/kg/injection, schedule: Q01DX005 (ip), vehicle: saline 102 % of control | dose: 100.0 mg/kg/injection, schedule: Q01DX005 (ip), vehicle: saline 99 % of control | dose: 200.0 mg/kg/injection, schedule: Q01DX005 (ip), vehicle: saline 91 % of control

O=[N+]([O-])c1cccc(Cl)c1C(Nc1nncs1)Nc1nncs1
inactive: dose: 60.0 mg/kg/injection, schedule: Q01DX005 (ip), vehicle: Klucel (hydroxypropylcellulose) (HPC) 96 % of control | dose: 120.0 mg/kg/injection, schedule: Q01DX005 (ip), vehicle: Klucel (hydroxypropylcellulose) (HPC) 106 % of control | dose: 240.0 mg/kg/injection, schedule: Q01DX005 (ip), vehicle: Klucel (hydroxypropylcellulose) (HPC) 118 % of control

NC(=S)/N=C(/N)NC(=O)c1ccccc1
inactive: [11] 87 % of control | [7] 87 % of control | [8] 86 % of control | [12] 110 % of control

CN(C)c1ncnc2nc(Cl)[nH]c12
inactive: dose: 6.25 mg/kg/injection, schedule: Q01DX005 (ip), vehicle: Klucel (hydroxypropylcellulose) (HPC) 95 % of control | [20] 112 % of control | [16] 108 % of control

CCOC(=O)Cn1nc2oc(=O)c(CCN3CCN(c4ccccc4OC)CC3)c(C)c2c1C
inactive: [16] 103 % of control | [13] 100 % of control | [14] 87 % of control | [15] 109 % of control

CCCCCCC(=O)CC(SCC(NC(C)=O)C(=O)O)c1ccccc1Cl (configuration not stated)
inactive: [9] 101 % of control | [10] 93 % of control

O=C1c2ccccc2C(=O)C1C(=Nc1ccccc1Cl)c1ccccc1
inactive: [20] 90 % of control | [16] 88 % of control | [13] 86 % of control | [14] 94 % of control

OCN1CCC23c4c5ccc(O)c4OC2C(O)C=CC3C1C5 (configuration not stated)
inactive: dose: 50.0 mg/kg/injection, schedule: Q01DX005 (ip), vehicle: saline with Tween-80 100 % of control | dose: 100.0 mg/kg/injection, schedule: Q01DX005 (ip), vehicle: saline with Tween-80 100 % of control | dose: 200.0 mg/kg/injection, schedule: Q01DX005 (ip), vehicle: saline with Tween-80 100 % of control

Source: PubChem BioAssay AID330 (DTP/NCI, 2004)
